Measured values taken from publication PMC11881136, “Development of a Novel ^18F-Labeled Radioligand for Imaging Phosphodiesterase 7 with Positron Emission Tomography” (Molecular Pharmaceutics, 2025).
Read-outs that look alike come from different tables or passages of the source.

Experiments:
[1] = set-up: method as in PMID 32246980; settings: cited from earlier work
[2] = molecular target: PDE7; experiment: Phosphodiesterase 7 inhibition assay (Eurofins); type: biochemical; settings: for Inhibiton at 0.5 nM: PDE7, 0.5 nM
Protocol: (§1) The inhibition assay of phosphodiesterase 7 with compounds 1–7 was performed by Eurofins. The inhibition assay of other phosphodiesterases with compound 7 was performed by Reaction Biology Corporation at a concentration of 3 μM.

[3] = molecular target: PDE7; set-up: method as in PMID 32246980; settings: read-out: binding affinity KD toward PDE7; cited from earlier work
[4] = test system: PDE7; experiment: PET imaging in rat brains; type: in vivo
Protocol: PET imaging was carried out as previously reported.[26] [^18F]7 (30–40 uCi) was administered to SD rats via the tail vein, and dynamic scans were conducted with a G8 scanner (Sofie) for 1 h (n = 4). In blocking studies, elacridar (5 mg/kg) was administered intravenously at 20 min before the administration of [^18F]7, and P7–2104 or 7 (3 mg/kg) was administered intravenously at 10 min before the administration of [^18F]7 (n = 3). PET data were analyzed with PMOD (PMOD Technologies LLC, Switzerland).

[5] = test system: PDE4; experiment: Inhibition assay of other phosphodiesterases: PDE4; type: biochemical; settings: 3 μM
Protocol: as §1

[6] = test system: PDE7; experiment: In vitro autoradiography in rat brain sections; type: binding; settings: blocker 10 μM
Protocol: Autoradiography studies were conducted as previously reported.[24],[25] In brief, SD rat brain sections ([…]) were preincubated with buffer (Tris-HCl, 50 mM) at ambient temperature for 20 min and then incubated with [^18F]7 (1 μCi/mL) for 30 min. After that, the brain sections were washed with cold buffer and water, dried with cold air, and exposed to the phosphor plate (12 h). In blocking studies, brain sections were incubated with [^18F]7 in the presence of compound 7 (10 μM) or P7–2104 (10 μM).

[7] = Log D, shake flask method; type: physicochemical; settings: n-octanol/PBS
Protocol: PBS buffer (0.01 M) and n-octanol were presaturated with each other overnight before the measurement. The PDE7 ligand [^18F]7, PBS (0.01 M, 5 mL), and n-octanol (5 mL) were combined and vortexed for 3 min, and then centrifuged (∼14 000 rpm, 5 min). The PBS fraction and n-octanol fraction were weighted and counted by γ counter. The log D was calculated as log[(radioactivityn-octanol/weightn-octanol)/(radioactivityPBS/weightPBS)].

[8] = molecular target: Sigma1 (Homo sapiens, UniProt Q99720); experiment: Off-target binding: Sigma1
Sigma1, sequence (Q99720 whole entry): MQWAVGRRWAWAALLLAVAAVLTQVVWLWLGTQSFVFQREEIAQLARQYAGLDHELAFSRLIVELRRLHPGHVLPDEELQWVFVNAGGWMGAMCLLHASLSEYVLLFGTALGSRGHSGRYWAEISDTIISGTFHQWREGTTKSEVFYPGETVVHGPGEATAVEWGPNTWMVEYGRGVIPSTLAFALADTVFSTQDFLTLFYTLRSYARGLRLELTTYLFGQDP

[9] = test system: 66 major CNS targets; experiment: Off-target binding profile against 66 major CNS targets; settings: 10 μM; except 5-HT2B and Sigma1
[10] = test system: other PDEs subfamilies; experiment: Inhibition assay of other phosphodiesterases (Reaction Biology Corporation); type: biochemical; settings: 3 μM; other than PDE4
Protocol: as §1

[11] = molecular target: 5-HT2B (Homo sapiens, UniProt P41595); experiment: Off-target binding: 5-HT2B
5-HT2B, sequence (P41595 whole entry, species assumed): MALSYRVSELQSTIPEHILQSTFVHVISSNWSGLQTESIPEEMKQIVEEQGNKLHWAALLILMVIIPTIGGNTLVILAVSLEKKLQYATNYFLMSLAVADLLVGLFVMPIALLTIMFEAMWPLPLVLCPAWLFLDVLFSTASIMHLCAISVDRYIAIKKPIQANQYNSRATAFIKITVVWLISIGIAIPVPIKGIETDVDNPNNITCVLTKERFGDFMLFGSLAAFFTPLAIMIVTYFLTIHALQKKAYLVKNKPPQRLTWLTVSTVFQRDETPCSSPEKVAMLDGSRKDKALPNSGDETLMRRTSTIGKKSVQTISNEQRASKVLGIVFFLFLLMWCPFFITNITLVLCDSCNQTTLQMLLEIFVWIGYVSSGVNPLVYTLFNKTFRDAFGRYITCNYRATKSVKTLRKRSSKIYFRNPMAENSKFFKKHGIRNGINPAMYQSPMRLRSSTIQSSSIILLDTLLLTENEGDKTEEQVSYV

[12] = molecular target: T1, PDE4B (Homo sapiens, UniProt Q07343); experiment: Inhibition assay of other phosphodiesterases: PDE4B; type: biochemical
T1 construct: purchased Reaction Biology Corporation
T1 sequence (Q07343 whole entry, species assumed): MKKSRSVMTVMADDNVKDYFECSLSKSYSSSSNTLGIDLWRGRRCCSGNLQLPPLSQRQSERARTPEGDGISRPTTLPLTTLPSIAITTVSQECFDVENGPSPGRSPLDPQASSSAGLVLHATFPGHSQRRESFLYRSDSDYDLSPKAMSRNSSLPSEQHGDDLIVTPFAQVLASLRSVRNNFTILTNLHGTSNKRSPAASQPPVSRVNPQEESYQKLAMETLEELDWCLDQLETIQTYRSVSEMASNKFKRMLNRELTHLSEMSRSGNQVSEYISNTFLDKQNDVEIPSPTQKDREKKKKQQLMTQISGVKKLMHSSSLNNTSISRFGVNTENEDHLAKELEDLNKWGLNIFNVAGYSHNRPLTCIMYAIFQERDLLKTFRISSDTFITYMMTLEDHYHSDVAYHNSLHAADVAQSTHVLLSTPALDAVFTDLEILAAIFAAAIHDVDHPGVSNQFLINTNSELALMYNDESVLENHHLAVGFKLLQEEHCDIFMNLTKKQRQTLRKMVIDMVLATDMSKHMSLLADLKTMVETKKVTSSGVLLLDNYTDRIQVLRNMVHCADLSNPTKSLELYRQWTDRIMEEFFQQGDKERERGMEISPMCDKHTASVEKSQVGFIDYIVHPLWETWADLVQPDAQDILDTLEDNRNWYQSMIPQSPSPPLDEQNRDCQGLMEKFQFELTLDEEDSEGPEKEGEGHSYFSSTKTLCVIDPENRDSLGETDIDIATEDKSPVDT
Protocol: as §1

[13] = In vitro stability in NHP serum; type: in vitro ADME; settings: up to 60 or 120 min
[14] = In vitro stability in rat serum; type: in vitro ADME; settings: up to 60 or 120 min
[15] = Radiometabolic analysis in rats; type: in vivo; settings: rat, 30 min post administration
Protocol: [^18F]7 was injected via the tail vein of SD rats and then euthanized 30 min after administration of [^18F]7 (0.1 mCi per rat, n = 2). The brain was collected, homogenized, and cold acetonitrile (0.2 mL) was added then centrifuged (14 000g, 5 min) at 4 °C. This step was repeated until there was no obvious precipitation formed. Then the supernatant was injected into a radioHPLC with unlabeled 7 as the internal standard. Both [^18F]7 and its ^18F-metabolites were collected by HPLC and then measured by γ counter. The same procedure was conducted for plasma.

[16] = In vitro stability in human serum; type: in vitro ADME; settings: up to 60 or 120 min
[17] = In vitro stability in formulation solution (saline); type: physicochemical; settings: up to 60 or 120 min
[18] = In vitro stability in mouse serum; type: in vitro ADME; settings: up to 60 or 120 min
[19] = Ex vivo whole-body biodistribution in CD-1 mice; set-up: species or system mouse
Protocol: Whole-Body biodistribution was carried out as previously reported.[27],[28] [^18F]7 (10 μCi/100 μL) was administered intravenously to CD-1 mice, which were sacrificed at 5, 15, 30, and 60 min after administration of [^18F]7 (n = 3). Tissues of interest were collected, weighted, and measured by a γ counter.

[20] = test system: PDE7; set-up: method as in PMID 26330158; settings: read-out: PDE7 inhibitory potency IC50; cited from earlier work

CN(C)C(=O)c1cccc(F)c1Oc1ccc(Cl)c2c1C1(CCCCC1)OC(=O)N2 [Compound 1, 2-((8-Chloro-2-oxo-1,2-dihydrospiro[benzo[d][1,3]oxazine-4,1′-cyclohexan]-5-yl)oxy)-3-fluoro-N,N-dimethylbenzamide]
brain uptake [1]: 0.25 %ID/g
IC50 [2]: 0.41 nM
Inhibiton at 0.5 nM [2]: 50%
Kd [3]: 0.8 nM

CN(C)C(=O)c1ccc(F)cc1Oc1ccc(Cl)c2c1C1(CCCCC1)OC(=O)N2 [Compound 2, 2-((8-Chloro-2-oxo-1,2-dihydrospiro[benzo[d][1,3]oxazine-4,1′-cyclohexan]-5-yl)oxy)-4-fluoro-N,N-dimethylbenzamide]
Inhibiton at 0.5 nM [2]: 6%

CN(C)C(=O)c1cc(F)ccc1Oc1ccc(Cl)c2c1C1(CCCCC1)OC(=O)N2 [Compound 3, 2-((8-Chloro-2-oxo-1,2-dihydrospiro[benzo[d][1,3]oxazine-4,1′-cyclohexan]-5-yl)oxy)-5-fluoro-N,N-dimethylbenzamide]
Inhibiton at 0.5 nM [2]: -17%

CN(C)C(=O)c1c(F)cccc1Oc1ccc(Cl)c2c1C1(CCCCC1)OC(=O)N2 [Compound 4, 2-((8-Chloro-2-oxo-1,2-dihydrospiro[benzo[d][1,3]oxazine-4,1′-cyclohexan]-5-yl)oxy)-6-fluoro-N,N-dimethylbenzamide]
Inhibiton at 0.5 nM [2]: -10%

O=C1Nc2c(Cl)ccc(Oc3c(F)cccc3C(=O)N3CCC3)c2C2(CCCCC2)O1 [Compound 5, 5-(2-(Azetidine-1-carbonyl)-6-fluorophenoxy)-8-chlorospiro[benzo[d][1,3]oxazine-4,1′-cyclohexan]-2(1H)-one]
IC50 [2]: 0.04 nM
Inhibiton at 0.5 nM [2]: 68%

CN(C(=O)c1cccc(F)c1Oc1ccc(Cl)c2c1C1(CCCCC1)OC(=O)N2)C1CC1 [Compound 6, 2-((8-Chloro-2-oxo-1,2-dihydrospiro[benzo[d][1,3]oxazine-4,1′-cyclohexan]-5-yl)oxy)-N-cyclopropyl-3-fluoro-N-methylbenzamide]
Inhibiton at 0.5 nM [2]: -13%

O=C1Nc2c(Cl)ccc(Oc3c(F)cccc3C(=O)N3CC(F)C3)c2C2(CCCCC2)O1 [Compound 7, 8-Chloro-5-(2-fluoro-6-(3-fluoroazetidine-1-carbonyl)phenoxy)spiro[benzo[d][1,3]oxazine-4,1′-cyclohexan]-2(1H)-one]
reduction of [18F]7 SUVpeak in striatum (PET blocking) ([4]; blocker 3 mg/kg i.v. with elacridar 5 mg/kg, SD rats): 51%
activity against PDE4 [5]: moderately active
reduction of [18F]7 radioactivity signal in striatum (autoradiography blocking) [6]: 56%
IC50 [2]: 0.18 nM
selectivity for PDE7 over other PDE subfamilies [2]: > 400 fold
Inhibiton at 0.5 nM [2]: 51%
logD [7]: 3.27
Ki [8]: 7410 nM
off-target binding (>50% inhibition) against 66 major CNS targets [9]: No significant off-target binding
inhibition of other PDEs subfamilies [10]: < 50 % inhibition
Ki [11]: 3360 nM
IC50 [12]: 77.3 nM
PDE4B inhibition ([12]; 3 μM): 92 % inhibition

O=C1Nc2c(Cl)ccc(Oc3c(F)cccc3C(=O)N3CC([18F])C3)c2C2(CCCCC2)O1 [[^18F]7]
SUVpeak in striatum after elacridar ([4]; SD rats, elacridar 5 mg/kg i.v. 20 min before tracer): 2.8
SUVpeak in striatum, baseline ([4]; SD rats, i.v., baseline): 0.35
increase of SUVpeak in striatum by elacridar ([4]; elacridar 5 mg/kg vs baseline): 700%
in vitro stability in NHP serum [13]: no obvious decomposition or metabolite was observed
in vitro stability in rat serum [14]: no obvious decomposition or metabolite was observed
intact parent fraction in brain [15]: 92%
intact parent fraction in plasma [15]: 67%
IC50 [2]: 0.18 nM
selectivity for PDE7 over other PDE subfamilies [2]: > 400 fold
in vitro stability in human serum [16]: no obvious decomposition or metabolite was observed
in vitro stability in saline [17]: no obvious decomposition or metabolite was observed
in vitro stability in mouse serum [18]: no obvious decomposition or metabolite was observed
bone uptake at 5 min ([19]; 5 min): 1.6 %ID/g
bone uptake at 60 min ([19]; 60 min): 0.3 %ID/g
initial radioactivity in liver, small intestine, kidney, pancreas, lung, and heart ([19]; i.v., initially): > 5 %ID/g
brain uptake (biodistribution) ([19]; initially): low uptake

O=C1Nc2c(Cl)ccc(OCC[18F])c2C2(CCCCC2)N1 [[^18F]MICA-003]
IC50 [20]: 17 nM
